Source: patent US12539298B2, “Lobinaline N-oxides as positive allosteric modulators of the dopamine transporter with potential value in the treatment of substance abuse disorders” (University of Kentucky Research Foundation, priority 2019, dated 2026)
Like-named read-outs stand apart in the source and are kept apart here.

Tests used:
[1] = molecular target: T1, DAT (Rattus norvegicus, UniProt P23977); assay: dopamine uptake in striatum of isoflurane-anesthetized rats by in vivo electrochemistry, Examples 19-20; design: DA clearance in striatum and nucleus accumbens of urethane-anesthetized SD rats; from tissue; host or cells: striatum / nucleus accumbens of living anesthetized SD rats; species or system SD rats
T1 sequence (P23977 whole entry): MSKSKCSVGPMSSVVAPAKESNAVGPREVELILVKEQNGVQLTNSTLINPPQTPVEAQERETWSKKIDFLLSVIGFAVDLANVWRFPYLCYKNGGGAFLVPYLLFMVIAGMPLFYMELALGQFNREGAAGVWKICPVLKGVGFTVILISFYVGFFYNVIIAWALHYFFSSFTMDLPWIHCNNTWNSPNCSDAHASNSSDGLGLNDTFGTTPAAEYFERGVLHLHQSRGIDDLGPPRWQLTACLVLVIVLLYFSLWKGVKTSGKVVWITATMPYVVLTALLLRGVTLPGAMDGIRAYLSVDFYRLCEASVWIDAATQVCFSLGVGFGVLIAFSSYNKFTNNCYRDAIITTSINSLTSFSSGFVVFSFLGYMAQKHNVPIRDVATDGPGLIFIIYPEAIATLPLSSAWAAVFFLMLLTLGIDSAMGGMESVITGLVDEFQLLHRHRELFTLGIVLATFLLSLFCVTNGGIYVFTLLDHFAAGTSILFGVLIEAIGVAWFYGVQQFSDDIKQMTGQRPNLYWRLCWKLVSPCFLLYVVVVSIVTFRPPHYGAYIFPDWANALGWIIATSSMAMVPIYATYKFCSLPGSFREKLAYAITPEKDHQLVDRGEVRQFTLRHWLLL
Method: After obtaining reproducible signals for locally applied DA (50-75 nl, 200 μM) to produce a control DA peak height below 1 uM, vehicle or drug was locally applied slowly over 10-30 sec (˜500 nl 250 μM), then 60 sec later the next application of DA was performed, with subsequent DA applications at 5-min intervals for 25 min. […] The DA kinetic data from each animal were analyzed using FAST software (Quanteon, LLC, Nicholasville KY USA). […] These parameters were compared between pre- and post-drug application by one-way ANOVA with Tukey's post hoc analysis, with significance assigned at p<0.05.

[2] = aqueous solubility; assay type: physicochemical
Source text: Lobinaline (FIG. 1), was isolated from plant material and identified as the first-known binitrogenous plant alkaloid more than 80 years ago [27]. The applicants began to test its pharmacological activity after identifying Lobelia cardinalis as a novel source of nicAChR activity by high throughput screening in 2005 [26]. This plant species has no history of abuse, or traditional medicinal use of relevance to SUDs. […] These actions support lobinaline as a lead compound for the treatment of SUDs, particularly alcohol and nicotine use disorders. […] Lobinaline also appears to have appropriate pharmacokinetics and low toxicity. […] Conversely, this makes it a good test of the ability of target-directed evolution to generate novel inhibitors of the DAT in mutant plant cells.
Lobinaline and the “mono”-N-oxide were separated from plant and culture material by acid/base extraction, but the bi-N-oxide was derived from lobinaline using 3-chloroperbenzoic acid. All these compounds were separated by column chromatography with identity and purity confirmed by LC/MS.

[3] = molecular target: T1, DAT; assay: DA clearance in striatum of anesthetized rats by in vivo electrochemistry (high-speed chronoamperometry), Example 8; design: DA clearance in striatum and nucleus accumbens of urethane-anesthetized SD rats; from tissue; host or cells: striatum / nucleus accumbens of living anesthetized SD rats; species or system SD rats; details: for reduction in DA clearance: striatum, 1 minute after local application (lobinaline ~250 nl 1 mM; 403, 419 ~300 nl 250 μM), FIGS. 7-9; for increase in amplitude of DA signal: ~300 nl, 250 μM local application, FIGS. 8, 9
Method: DA clearance in striatum and nucleus accumbens of urethane-anesthetized SD rats was monitored by in vivo electrochemistry using high-speed chrono-amperometry [see 36]. After obtaining reproducible signals for locally applied DA, vehicle or drug was applied slowly over 10-30 sec, then 30-60 sec later the next application of DA was made, with subsequent DA applications at 5-minute intervals for 25-30 min. The DA kinetic data from each animal was analyzed using FAST software (Quanteon). […] These effects were no longer seen 3-5 minutes after lobinaline ejection. They are consistent with simple competitive inhibition of the DAT by lobinaline. […] However, the lobinaline N-oxides produce different effects. Representative data from lobinaline N-oxide, at the same concentration used for lobinaline (1 mM in 250 nl medium) are shown in FIG. 6. […] This is entirely consistent with effects on synaptosomal [3H]DA uptake in vitro above, and probably represents competitive inhibition. However, after exposure to the N-oxide there is a significant and prolonged (c20 min) increase in the first order rate of decay of the DA peak. […] This increase in rate constant induced by the N-oxide varied from 20× to 2× at increasing depths in the DV gradient.
The uptake rate of locally applied DA (˜100 nl; 200 μM) was measured before and 1 minute after local application of lobinaline (˜250 nl; 1 mM), 403 (˜300 nl; 250 μM) or 419 (˜300 nl; 250 μM) (FIGS. 7, 8, and 9).

[4] = molecular target: T1, DAT; assay: [3H]DA uptake into rat striatal synaptosomes; assay type: biochemical; design: from tissue; host or cells: rat striatum (synaptosomes; homogenate); details: compound added 15 min before [3H]DA, 30 min at 37° C, read-out: IC50, inhibition of [3H]-DA uptake
Method: Lobinaline or the N-oxides were added 15 min before addition of [3H]DA. Synaptosomal uptake of [3H]DA was measured after 30 min incubation at 37° C.

[5] = test system: nicAChRs; assay: displacement of [3H]epibatidine from rat brain homogenates; assay type: binding
[6] = molecular target: T1, DAT; design: from tissue; host or cells: rat striatum (synaptosomes; homogenate); details: literature values [33], [34]; read-out: IC50, DA uptake under similar conditions; cited from earlier work
[7] = test system: nicAChR; assay: 45Ca2+ entry into SHSY5Y cells; assay type: cell-based; details: SHSY5Y cells; antagonist 1 uM
Source text: Effects of lobinaline and nicotine on ^45Ca^2+ entry into SHSY5Y cells: nicAChR function can be evaluated semi-quantitatively in this cell line by measuring ^45Ca^2+ entry in response to nicotine. […] The lobinaline N-oxides have not yet been tested in this system.

[8] = test system: nicAChRs; assay: [3H]DA release from superfused rat striatal slices; assay type: cell-based; details: antagonist 10 μM
Method: Effects of lobinaline and nicotine on [3H]DA release from superfused rat striatal slices (ref 5): rat brain striatal slices were incubated with [3H]DA for 30 min at […] before transfer to superfusion chambers. […] To evaluate the role of nicAChRs, striatal slices preloaded with [3H]-DA were pretreated with the nicAChR antagonist mecamylamine (10 μM) prior to superfusion of lobinaline (100 μM). […] With the data above from SHSY5Y cells, this supports a partial agonist action of lobinaline at nicAChRs. The N-oxides have not yet been tested in this system. Lobinaline has weak agonist effects on nicAChRs, but also has as yet unquantified antagonist effects (i.e. it acts as a partial agonist at nicAChRs).

[9] = conditioned place preference (abuse potential); assay type: in vivo, SD rats
Source text: In conditioned place preference a chamber with distinct cues is repeatedly paired with administration of the test drug. A second chamber is repeatedly paired with a control injection. After conditioning, a test phase allows the rat to move between the chambers. If a drug is “rewarding” (i.e. has abuse potential), the rat spends more time in the drug-associated chamber. If it is aversive, the opposite result is obtained.
Methods: 6 male and 6 female SD rats were used for each drug and dose. Test drugs (5 or 25 mg/kg lobinaline, or 25 mg/Kg of lobinaline bi-N-oxide S.C) were paired with the “less preferred” compartment (standard for drugs that may be weakly reinforcing) for 20 minutes. On the next day, rats received a control (DMSO/saline) injection and were placed in the preferred chamber. After three repeated pairings (test and control), the subjects were given access to both chambers and the time spent in each compartment was recorded and scored by an observer blind to treatment. Analysis was by two way ANOVA with post hoc Bonnferoni with significance set at p<0.05. Results. Most animals spent most of the test period in the compartment originally preferred in the drug-free state, and there were no significant differences between drug and vehicle controls.

[10] = nicotine-induced locomotor activation (LMA), open field; assay type: in vivo, SD rats
Method: low S.C. doses of nicotine, repeated daily, cause progressive LMA related to mesolimbic DA release. This is reduced by lobeline and varenicline and therefore has predictive value as a screen for potential therapeutics in nicotine use disorder.
Methods: 2 groups of 6 adult SD rats of each sex were tested in an open-field apparatus for LMA. Each animal received a daily nicotine injection (0.5 mg/Kg SC) for 6 days with the last nicotine injection preceded (20 min) by 25 mg/Kg SC of lobinaline bi-N-oxide. Behavior was recorded and scored by an observer blind to treatment. Data was presented as line crosses/5 minutes with LMA over days 1-5 compared to LMA on day 6.

[11] = Drinking in the dark model of binge drinking; assay type: in vivo, C57Bl/6J mice; details: 25 mg/Kg SC
Method: “Drinking in the dark” is a model for binge drinking in which C57Bl/6J mice are given limited access to alcohol during their dark cycle. With repeated daily access, mice will voluntarily drink to blood alcohol levels above 150 mg/dl. Lobeline reduces alcohol consumption in this model and it has predictive validity in that both naltrexone and acamprosate are active.
Methods: 8 male and 8 female mice were used for each of these studies and scoring was by an observer blind to treatment. Statistical analysis was by ANOVA followed by Bonnferoni posthoc with significance at p<0.05.

What does the source list for `C[N+]1([O-])CCCC2C(c3ccccc3)C(C3=NCCCC3)C(c3ccccc3)CC21` (centres unmarked) [lobinaline N-oxide, lobinaline mono-N-oxide]?
DA clearance parameters, dorsal striatum, early changes ([1]; DV-3.5 to DV-5.5 mm, FIG. 12): increase in T80 and clearance rate that reflects the increase in peak amplitude, with no change in k−1; DA peak amplitude, dorsal striatum ([1]; DV-3.5 to DV-5.5 mm, up to 26 minutes after micro-injection, FIG. 12): marked and prolonged (but variable) increase; DA peak amplitude, ventral striatum ([1]; DV-6 to −7.5 mm (shell of nucleus accumbens), up to 26 minutes, FIG. 13): marked and consistent increase; DA clearance parameters, ventral striatum ([1]; DV-6 to −7.5 mm, FIG. 13): increase in clearance rate and k−1 at 21 and 26 minutes; DA clearance parameters, dorsal striatum, later ([1]; after 11-26 minutes, FIG. 12): increase in both uptake rate and k−1 with little change in T80; duration of increase in DA amplitude ([1]; over four local applications of dopamine): at least 20 minutes; effect on DA clearance parameters ([1]; relative to % control): reduced immediately after microinjection but increased later; effect on amplitude of the DA signal ([1]; single local application ~500 nl 250 μM, striatum, FIGS. 10, 11): increase in amplitude; aqueous solubility [2]: much more soluble than lobinaline; increase in amplitude of the DA signal ([3]; 1 mM in 250 nl medium, FIG. 6): twofold increase; duration of increase in first order rate of decay of the DA peak ([3]; after exposure, 1 mM in 250 nl): ~20 min; increase in first order rate constant of DA decay ([3]; dorso-ventral position −5.5 mm, remains after 16 minutes): about three-fold; reduction in DA clearance [3]: 60%; increase in amplitude of DA signal [3]: doubling; IC50 [4]: 517 nM; character of [3H]epibatidine displacement [5]: more weakly with a multiphasic displacement curve

Which IC50 [6] does the source give for `CC(NC(C)(C)C)C(=O)c1cccc(Cl)c1` (centres unmarked) [bupropion] here?
The IC50 was 1900 nM.

Which “inhibition of lobinaline-fraction-evoked 45Ca2+ entry by antagonist” value [7] does the source give for `CNC1(C)C2CCC(C2)C1(C)C` (centres unmarked) [mecamylamine] here?
Its value is “completely inhibited”.

And the “effect of antagonist pretreatment on lobinaline (100 μM)-evoked fractional [3H] release” value [8]?
Its value is “significantly attenuated”.

For `C[N+]1([O-])CCCC2C(c3ccccc3)C(C3=[N+]([O-])CCCC3)C(c3ccccc3)CC21` (centres unmarked) [lobinaline bi-N-oxide], which “effects on the DAT in vivo compared with mono-N-oxide” value ([3]; rat, in vivo) is on record?
The value was “less potent than the “natural” mono-N-oxide”.

What about the “reduction in DA clearance” value [3] of the same compound?
Its value is 40%.

And the “increase in amplitude of DA signal” value [3]?
Its value is 4 fold.

What about the overt toxicity ([9]; after 3 repeated drug administrations) of the same compound?
The overt toxicity was “no signs of overt toxicity”.

What about the “sedation or locomotor activation” value ([9]; lobinaline 5 or 25 mg/kg, bi-N-oxide 25 mg/Kg S.C) of the same compound?
The value was “no sedation or locomotor activation”.

What about the “conditioned place preference or aversion” value ([9]; lobinaline 5 or 25 mg/kg, bi-N-oxide 25 mg/Kg S.C, three pairings) of the same compound?
Its value is “neither lobinaline nor the lobinaline bi-N-oxide produced conditioned place preference or aversion”.

What about the IC50 [4] of the same compound?
The IC50 was 1190 nM.

What about the Ki [5] of the same compound?
The Ki was 6500 nM.

And the “character of [3H]epibatidine displacement” value [5]?
Its value is “monophasically displaced”.

What about the “effect on nicotine-induced LMA sensitization trend” value ([10]; 25 mg/Kg SC 20 min before nicotine 0.5 mg/Kg SC on day 6) of the same compound?
The value was “reversed in both sexes”.

And the “individual animals showing the same trend” value ([10]; day 6 vs days 1-5, repeated measures)?
The value was 10/12.

What about the “food or water intake” value [11] of the same compound?
The value was “no reduction in food or water intake”.

What about the overt toxicity [11] of the same compound?
Its overt toxicity is “neither compound produced overt toxicity”.
